Where a name gives a salt, the structure may show the parent alone.
Target: T1, human TLR9 (hTLR9) (Homo sapiens, UniProt Q9NR96)
T1 construct: expressed in transfected cells
T1 sequence (Q9NR96 26-1032): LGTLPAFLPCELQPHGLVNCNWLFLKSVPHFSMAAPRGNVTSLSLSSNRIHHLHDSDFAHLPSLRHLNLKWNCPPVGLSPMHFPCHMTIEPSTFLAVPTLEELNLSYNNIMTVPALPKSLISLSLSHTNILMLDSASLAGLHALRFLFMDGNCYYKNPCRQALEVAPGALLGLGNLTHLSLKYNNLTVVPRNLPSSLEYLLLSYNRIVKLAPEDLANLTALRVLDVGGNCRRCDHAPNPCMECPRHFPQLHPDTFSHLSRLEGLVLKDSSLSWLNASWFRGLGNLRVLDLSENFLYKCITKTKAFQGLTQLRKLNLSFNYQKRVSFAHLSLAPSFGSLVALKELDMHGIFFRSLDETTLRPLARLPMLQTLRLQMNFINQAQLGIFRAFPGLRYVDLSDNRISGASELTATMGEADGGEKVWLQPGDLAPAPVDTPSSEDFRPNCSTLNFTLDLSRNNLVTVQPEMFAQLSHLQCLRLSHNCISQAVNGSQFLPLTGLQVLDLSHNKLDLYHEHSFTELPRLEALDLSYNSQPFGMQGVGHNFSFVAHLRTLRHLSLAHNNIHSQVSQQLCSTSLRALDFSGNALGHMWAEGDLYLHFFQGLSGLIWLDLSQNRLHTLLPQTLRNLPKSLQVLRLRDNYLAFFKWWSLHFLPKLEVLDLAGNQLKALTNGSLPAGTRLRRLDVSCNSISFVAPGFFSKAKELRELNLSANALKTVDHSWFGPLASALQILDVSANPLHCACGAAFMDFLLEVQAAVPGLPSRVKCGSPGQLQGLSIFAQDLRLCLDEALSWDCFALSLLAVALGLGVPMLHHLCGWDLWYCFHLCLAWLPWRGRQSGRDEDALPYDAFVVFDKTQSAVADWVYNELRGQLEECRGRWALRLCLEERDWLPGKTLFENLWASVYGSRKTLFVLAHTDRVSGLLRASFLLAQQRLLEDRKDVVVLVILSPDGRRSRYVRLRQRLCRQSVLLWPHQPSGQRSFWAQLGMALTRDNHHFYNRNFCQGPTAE
Assay: Antagonist screen, hTLR9-NFκB-293 cells, 6× NF-κB-luciferase reporter, with EC50 of CpG ODN 2006
Type: cell-based
Conditions: for hTLR9 (inhibitory effect, antagonist score): compound at 0.5, 5, 50 μg/ml, EC50 concentration of CpG ODN 2006, 16 h, NF-κB-luciferase; for hTLR9 (inhibitory effect): hTLR9-NFκB-293 cells, with EC50 of CpG ODN 2006, compound at 0.5, 5 and 50 μg/ml
Summary of the method: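 Luciferase fold induction was compared with the ligand-alone baseline, and antagonism was scored by the lowest concentration giving clear down-regulation.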

| Compound | hTLR9 (inhibitory effect, antagonist score) | hTLR9 (inhibitory effect) |
| --- | --- | --- |
| CN1CCc2cccc3c2[C@H]1Cc1ccc(O)c(O)c1-3.Cl [compound 101, Apomorphinehydrochloride (R, —)] | 12 (compounds for which there was clear down regulation at 5 μg/ml and 50 μg/ml) |  |
| CC(C)(C)c1ccc(C(O)CCCN2CCC(C(O)(c3ccccc3)c3ccccc3)CC2)cc1 (stereo not shown) [compound 138, Terfenadine] | 12 (compounds for which there was clear down regulation at 5 μg/ml and 50 μg/ml) |  |
| CN(C)C(=O)C(CCN1CCC(O)(c2ccc(Cl)cc2)CC1)(c1ccccc1)c1ccccc1 [compound 144, Loperamidehydrochloride] | 12 (compounds for which there was clear down regulation at 5 μg/ml and 50 μg/ml) |  |
| COc1cc2cc3c4cc(OC)c(OC)cc4cc[n+]3c(C)c2cc1OC [compound 431, Coralyne chloridehydrate] |  | 13 (compounds for which there was clear down regulation at 0.5 μg/ml, 5 μg/ml, and 50 μg/ml) |
| COc1ccc(Cc2nccc3cc(OC)c(OC)cc23)cc1OC.Cl [compound 583, Papaverinehydrochloride] |  | 12 (compounds for which there was clear down regulation at 5 μg/ml and 50 μg/ml) |
| COc1ccc2cc3[n+](cc2c1OC)CCc1cc2c(cc1-3)OCO2.[Cl-] [compound 586, Berberine chloride] |  | — (compounds for which there was no clear down regulation even at 50 μg/ml) |
| COc1cc2c(cc1O)C[C@H]1c3c(cc(O)c(OC)c3-2)CCN1C [compound 600, Boldine] | 12 (compounds for which there was clear down regulation at 5 μg/ml and 50 μg/ml) |  |
| CN1CCc2cc3c(c4c2C1Cc1ccccc1-4)OCO3.Cl (stereo not shown) [compound 669, Remerine hydrochloride] | — (compounds for which there was no clear down regulation even at 50 μg/ml) |  |
| COc1cc2nc(N3CCN(C(=O)C4CCCO4)CC3)nc(N)c2cc1OC.Cl (stereo not shown) [compound 751, Terazosin hydrochloride] | 13 (compounds for which there was clear down regulation at 0.5 μg/ml, 5 μg/ml, and 50 μg/ml) |  |
| CC[N+](C)(CC)CCC[n+]1c(-c2ccccc2)c2cc(N)ccc2c2ccc(N)cc21.[I-].[I-] [compound 792, Propidium iodide] |  | 12 (compounds for which there was clear down regulation at 5 μg/ml and 50 μg/ml) |
| CN(C)CCN(Cc1ccc(Cl)cc1)c1ccccn1.Cl [compound 807, Chloro-pyraminehydrochloride] |  | 12 (compounds for which there was clear down regulation at 5 μg/ml and 50 μg/ml) |
| CCOc1ccc(Cc2nccc3cc(OCC)c(OCC)cc23)cc1OCC.Cl [compound 830, Ethaverinehydrochloride] |  | 11 (compounds for which there was clear down regulation only at 50 μg/ml) |
| COc1cc2nc(N3CCN(C(=O)C4COc5ccccc5O4)CC3)nc(N)c2cc1OC.CS(=O)(=O)O (stereo not shown) [compound 858, Doxazosin mesylate] | 13 (compounds for which there was clear down regulation at 0.5 μg/ml, 5 μg/ml, and 50 μg/ml) |  |
| O=c1c2c(nc(NCCO)n1-c1ccccc1)-c1ccccc1CC21CCCC1 [compound 891] |  | 11 (compounds for which there was clear down regulation only at 50 μg/ml) |
| O=c1c2c(nc(NCCO)n1Cc1ccccc1)-c1ccccc1CC21CCCC1 [compound 926] |  | 11 (compounds for which there was clear down regulation only at 50 μg/ml) |
| CN1CCc2c1nc1ccccc1c2N [compound 990, 1-Methyl-2,3-dihydro-1H-pyrrolo[2,3-b]quinolin-4-ylamine] |  | 13 (compounds for which there was clear down regulation at 0.5 μg/ml, 5 μg/ml, and 50 μg/ml) |
| CN1CCc2c1nc1ccccc1c2NC(=O)CN1CCCCCC1 [compound 1003] |  | 13 (compounds for which there was clear down regulation at 0.5 μg/ml, 5 μg/ml, and 50 μg/ml) |

| Compound | hTLR9 (inhibitory effect, antagonist score) | hTLR9 (inhibitory effect) |
| --- | --- | --- |
| Cc1ccc2nc3c(c(N)c2c1)CCN3C [compound 1091, 1,6-Dimethyl-2,3-dihydro-1H-pyrrolo[2,3-b]quinolin-4-ylamine] |  | 13 (compounds for which there was clear down regulation at 0.5 μg/ml, 5 μg/ml, and 50 μg/ml) |
| Cc1ccc(-n2c(NCCO)nc3c(c2=O)C2(CCCCC2)Cc2ccccc2-3)cc1 [compound 1137] |  | 11 (compounds for which there was clear down regulation only at 50 μg/ml) |
| CN1CCc2c1nc1ccc(Br)cc1c2N [compound 1142, 6-Bromo-1-methyl-2,3-dihydro-1H-pyrrolo[2,3-b]quinolin-4-ylamine] |  | 13 (compounds for which there was clear down regulation at 0.5 μg/ml, 5 μg/ml, and 50 μg/ml) |
| O=C1c2ccc(S(=O)(=O)c3ccc4c(c3)C(=O)N(c3ccccn3)C4=O)cc2C(=O)N1c1ccccn1 [compound 1163] |  | 11 (compounds for which there was clear down regulation only at 50 μg/ml) |
| CN1CCCCc2c1nc1ccccc1c2N [compound 1185, 1-Methyl-2,3,4,5-tetrahydro-1H-azepino[2,3-b]quinolin-6-ylamine] |  | 13 (compounds for which there was clear down regulation at 0.5 μg/ml, 5 μg/ml, and 50 μg/ml) |
| CN1CCc2c1nc1ccccc1c2NC(=O)CN1CCN(c2ccccc2)CC1 [compound 1212] |  | 12 (compounds for which there was clear down regulation at 5 μg/ml and 50 μg/ml) |
| Cn1c(NN)nc2c(c1=O)C1(CCCC1)Cc1ccccc1-2 [compound 1213] |  | — (compounds for which there was no clear down regulation even at 50 μg/ml) |
| Nc1c2c(nc3ccccc13)N(Cc1ccccc1)CC2 [compound 1217, 1-Benzyl-2,3-dihydro-1H-pyrrolo[2,3-b]quinolin-4-ylamine] |  | 13 (compounds for which there was clear down regulation at 0.5 μg/ml, 5 μg/ml, and 50 μg/ml) |
| CCCCCCN(CCCCCC)CC(=O)Nc1c2c(nc3ccccc13)N(C)CC2 [compound 1224] |  | 11 (compounds for which there was clear down regulation only at 50 μg/ml) |
| O=C(CN1CCCC1)Nc1c2c(nc3ccccc13)N(c1ccccc1)CC2 [compound 1244] |  | 12 (compounds for which there was clear down regulation at 5 μg/ml and 50 μg/ml) |
| NNc1nc2c(c(=O)n1C1CCCC1)C1(CCCC1)Cc1ccccc1-2 [compound 1248] |  | — (compounds for which there was no clear down regulation even at 50 μg/ml) |
| NNc1nc2c(c(=O)n1-c1ccccc1)C1(CCCC1)Cc1ccccc1-2 [compound 1320] |  | 13 (compounds for which there was clear down regulation at 0.5 μg/ml, 5 μg/ml, and 50 μg/ml) |
| O=c1[nH]c(NCCO)nc2c1C1(CCCC1)Cc1ccccc1-2 [compound 1322] |  | — (compounds for which there was no clear down regulation even at 50 μg/ml) |
| CCCCCCCCCCCC(=O)Nc1c2c(nc3ccccc13)N(C)CC2 [compound 1334] |  | 11 (compounds for which there was clear down regulation only at 50 μg/ml) |
| O=C1c2ccc(Oc3ccc(S(=O)(=O)c4ccc(Oc5ccc6c(c5)C(=O)N(c5ccccn5)C6=O)cc4)cc3)cc2C(=O)N1c1ccccn1 [compound 1367] |  | — (compounds for which there was no clear down regulation even at 50 μg/ml) |
| CCN(CC)CCCC(C)Nc1nc(/C=C/c2ccc(Cl)cc2)nc2cc3ccccc3cc12 (stereo not shown) [compound 2000] | 13 (compounds for which there was clear down regulation at 0.5 μg/ml, 5 μg/ml, and 50 μg/ml) |  |
| CCN(CC)CCCNc1nc(-c2ccccc2)nc2ccccc12 [compound 2001] | 13 (compounds for which there was clear down regulation at 0.5 μg/ml, 5 μg/ml, and 50 μg/ml) |  |

From patent publication US7410975B2, “Small molecule toll-like receptor (TLR) antagonists” (Coley Pharmaceutical Group, Inc., priority 2003, dated 2008)
